Publication PMC10700596 (Nature Communications, 2023)
Where “and” joins values, the source holds several entries; their conditions need not be identical. Equal entries are not always repeated.

What was measured:
320 GPCRs [1] = molecular target: 320 GPCRs (Homo sapiens, UniProt Q9NS66); type: cell-based
320 GPCRs [2] = molecular target: 320 GPCRs (Homo sapiens, UniProt P22888); type: cell-based
320 GPCRs [3] = molecular target: 320 GPCRs (Homo sapiens, UniProt P35348); type: cell-based
320 GPCRs [4] = molecular target: 320 GPCRs (Homo sapiens, UniProt P51685); type: cell-based
320 GPCRs [5] = molecular target: 320 GPCRs (Homo sapiens, UniProt Q16602); type: cell-based
320 GPCRs [6] = molecular target: 320 GPCRs (Homo sapiens, UniProt P47211); type: cell-based
320 GPCRs [7] = molecular target: 320 GPCRs (Homo sapiens, UniProt Q14439); type: cell-based
320 GPCRs [8] = molecular target: 320 GPCRs (Homo sapiens, UniProt P32248); type: cell-based
320 GPCRs [9] = molecular target: 320 GPCRs (Homo sapiens, UniProt Q8TDV5); type: cell-based
320 GPCRs [10] = molecular target: 320 GPCRs (Homo sapiens, UniProt Q9UJ42); type: cell-based
320 GPCRs [11] = molecular target: 320 GPCRs (Homo sapiens, UniProt Q9NQS5); type: cell-based
320 GPCRs [12] = type: cell-based
320 GPCRs [13] = molecular target: 320 GPCRs (Homo sapiens, UniProt P13945); type: cell-based
320 GPCRs [14] = molecular target: 320 GPCRs (Homo sapiens, UniProt P21453); type: cell-based
320 GPCRs [15] = molecular target: 320 GPCRs (Homo sapiens, UniProt Q7Z601); type: cell-based
320 GPCRs [16] = molecular target: 320 GPCRs (Homo sapiens, UniProt Q03431); type: cell-based
320 GPCRs [17] = molecular target: 320 GPCRs (Homo sapiens, UniProt Q8TDV0); type: cell-based
320 GPCRs [18] = molecular target: 320 GPCRs (Homo sapiens, UniProt Q8IZF5); type: cell-based
320 GPCRs [19] = molecular target: 320 GPCRs (Homo sapiens, UniProt P23945); type: cell-based
320 GPCRs [20] = molecular target: 320 GPCRs (Homo sapiens, UniProt P43115); type: cell-based
320 GPCRs [21] = molecular target: 320 GPCRs (Homo sapiens, UniProt P37288); type: cell-based
320 GPCRs [22] = molecular target: 320 GPCRs (Homo sapiens, UniProt P41594); type: cell-based
[23] = molecular target: T1, TYK2(JH1domain-catalytic) (Homo sapiens, UniProt P29597); test: KINOMEscan; type: binding
T1 construct: TYK2(JH1domain-catalytic); purchased Eurofins DiscoverX KINOMEscan (scanEDGE, 97 kinases)
T1 sequence (P29597 888-1187 limits assumed): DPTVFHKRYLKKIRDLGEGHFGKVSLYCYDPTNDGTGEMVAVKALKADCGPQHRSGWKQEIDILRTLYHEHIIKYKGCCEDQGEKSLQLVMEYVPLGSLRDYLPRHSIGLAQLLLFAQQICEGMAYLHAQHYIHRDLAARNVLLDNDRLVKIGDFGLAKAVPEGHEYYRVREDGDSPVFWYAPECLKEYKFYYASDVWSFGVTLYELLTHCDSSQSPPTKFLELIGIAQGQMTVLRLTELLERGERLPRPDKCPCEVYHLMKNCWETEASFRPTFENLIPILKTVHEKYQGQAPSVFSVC

CSF1R = CSF1R (Homo sapiens, UniProt P07333); test: biochemical; type: binding; conditions: 10000 nM; read-out: Percent Control
BMPR2 = BMPR2 (Homo sapiens, UniProt Q13873); test: biochemical; type: binding; conditions: for Signal (qPCR): BMPR2
From the text: Supplementary Figure 7: Non-GPCR off-target screening for 74. a)-e) Dose-response curves of 74 at
proliferator-activated receptor gamma (PPARγ, Eurofins item G124). Data in a)-e) and g)-i) represent two
technical replicates. Source data are provided as a Source Data file.

mice = type: in vivo
Method: For all behavioral tests, the experimenter was always blind to treatment. Animals were habituated for 60 min in Plexiglas cylinders before testing. […] For 10 mg/kg doses, compounds were prepared in 2.5 mg/ml solutions of which 100 µL were administered to mice (average weight 25 g). For 30 mg/kg doses, 7.5 mg/ml solutions were prepared. […] Hindpaw mechanical thresholds were determined with von Frey filaments using the up-down method, 60 min after administration of the EP4R antagonists (i.p. or via oral gavage). For the ambulatory (rotarod) test, mice were first trained on an accelerating rotating rod, 3 times for 5 minutes, before testing with any compound. On the test day, latency to fall from the rod was measured 1 h after injection of the compound. The cutoff was 300 s. Statistical tests were performed with GraphPad Prism 9.0 (GraphPad Software Inc., San Diego).

[24] = 10000 nM, read-out: Percent Control

Sequence of 320 GPCRs (Homo sapiens, UniProt Q16602) (Q16602 23-461): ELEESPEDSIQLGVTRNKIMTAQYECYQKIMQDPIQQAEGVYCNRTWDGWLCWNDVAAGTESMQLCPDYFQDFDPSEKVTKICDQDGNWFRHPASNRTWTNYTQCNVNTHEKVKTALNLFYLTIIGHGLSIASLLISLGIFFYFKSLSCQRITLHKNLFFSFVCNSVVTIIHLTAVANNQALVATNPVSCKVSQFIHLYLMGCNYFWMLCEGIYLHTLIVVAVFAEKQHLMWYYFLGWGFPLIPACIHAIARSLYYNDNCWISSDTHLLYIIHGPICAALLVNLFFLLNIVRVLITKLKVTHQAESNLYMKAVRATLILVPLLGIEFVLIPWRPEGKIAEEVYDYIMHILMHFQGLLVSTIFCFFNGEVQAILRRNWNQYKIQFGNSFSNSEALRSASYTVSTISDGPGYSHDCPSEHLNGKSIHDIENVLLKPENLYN
Sequence of 320 GPCRs (Homo sapiens, UniProt Q9NS66) (Q9NS66 whole entry): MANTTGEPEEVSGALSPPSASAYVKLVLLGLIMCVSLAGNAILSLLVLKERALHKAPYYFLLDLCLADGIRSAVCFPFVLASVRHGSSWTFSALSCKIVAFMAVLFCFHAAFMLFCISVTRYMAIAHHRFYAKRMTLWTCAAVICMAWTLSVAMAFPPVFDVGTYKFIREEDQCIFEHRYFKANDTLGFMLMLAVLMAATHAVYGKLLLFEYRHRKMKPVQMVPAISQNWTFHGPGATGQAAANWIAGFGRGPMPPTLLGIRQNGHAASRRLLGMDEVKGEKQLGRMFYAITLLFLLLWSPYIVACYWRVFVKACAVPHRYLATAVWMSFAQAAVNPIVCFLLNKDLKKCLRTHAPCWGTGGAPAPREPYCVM
Sequence of 320 GPCRs (Homo sapiens, UniProt P22888) (P22888 27-699): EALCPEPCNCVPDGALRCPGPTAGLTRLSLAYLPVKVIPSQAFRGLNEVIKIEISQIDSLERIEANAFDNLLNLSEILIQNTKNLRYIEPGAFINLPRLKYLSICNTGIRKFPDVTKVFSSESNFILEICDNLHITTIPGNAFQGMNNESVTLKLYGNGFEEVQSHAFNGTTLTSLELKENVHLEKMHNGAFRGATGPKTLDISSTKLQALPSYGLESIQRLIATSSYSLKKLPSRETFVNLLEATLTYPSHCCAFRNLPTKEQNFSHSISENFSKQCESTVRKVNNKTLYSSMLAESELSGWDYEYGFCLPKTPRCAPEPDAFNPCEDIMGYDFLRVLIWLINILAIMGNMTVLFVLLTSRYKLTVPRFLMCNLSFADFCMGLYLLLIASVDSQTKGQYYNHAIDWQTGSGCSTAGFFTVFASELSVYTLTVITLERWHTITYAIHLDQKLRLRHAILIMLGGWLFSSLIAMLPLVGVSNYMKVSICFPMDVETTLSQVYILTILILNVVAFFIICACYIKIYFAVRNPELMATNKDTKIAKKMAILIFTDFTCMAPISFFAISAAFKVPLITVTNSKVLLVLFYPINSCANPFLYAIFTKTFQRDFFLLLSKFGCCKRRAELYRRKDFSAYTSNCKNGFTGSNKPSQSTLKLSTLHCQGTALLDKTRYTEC
Sequence of 320 GPCRs (Homo sapiens, UniProt Q9NQS5) (Q9NQS5 whole entry): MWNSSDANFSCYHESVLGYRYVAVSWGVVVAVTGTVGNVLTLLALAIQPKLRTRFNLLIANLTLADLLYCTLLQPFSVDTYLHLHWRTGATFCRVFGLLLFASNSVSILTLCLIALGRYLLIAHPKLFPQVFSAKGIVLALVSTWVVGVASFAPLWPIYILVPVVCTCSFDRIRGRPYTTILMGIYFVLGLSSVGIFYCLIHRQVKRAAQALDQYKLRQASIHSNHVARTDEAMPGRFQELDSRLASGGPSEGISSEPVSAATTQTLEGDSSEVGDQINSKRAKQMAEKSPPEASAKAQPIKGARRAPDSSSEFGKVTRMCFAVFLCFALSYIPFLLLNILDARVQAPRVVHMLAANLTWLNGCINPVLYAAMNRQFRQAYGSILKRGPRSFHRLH
Sequence of 320 GPCRs (Homo sapiens, UniProt P51685) (P51685 whole entry): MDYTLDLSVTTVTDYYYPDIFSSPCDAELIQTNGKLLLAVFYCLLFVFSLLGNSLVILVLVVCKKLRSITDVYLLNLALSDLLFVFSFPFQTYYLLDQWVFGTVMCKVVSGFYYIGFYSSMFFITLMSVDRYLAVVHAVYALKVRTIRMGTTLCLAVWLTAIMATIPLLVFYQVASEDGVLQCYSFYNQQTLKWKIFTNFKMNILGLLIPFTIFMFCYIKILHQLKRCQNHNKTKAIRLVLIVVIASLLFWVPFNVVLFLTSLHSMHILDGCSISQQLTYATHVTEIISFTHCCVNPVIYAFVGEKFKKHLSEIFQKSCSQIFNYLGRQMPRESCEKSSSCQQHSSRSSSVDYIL
Sequence of 320 GPCRs (Homo sapiens, UniProt P35348) (P35348 whole entry): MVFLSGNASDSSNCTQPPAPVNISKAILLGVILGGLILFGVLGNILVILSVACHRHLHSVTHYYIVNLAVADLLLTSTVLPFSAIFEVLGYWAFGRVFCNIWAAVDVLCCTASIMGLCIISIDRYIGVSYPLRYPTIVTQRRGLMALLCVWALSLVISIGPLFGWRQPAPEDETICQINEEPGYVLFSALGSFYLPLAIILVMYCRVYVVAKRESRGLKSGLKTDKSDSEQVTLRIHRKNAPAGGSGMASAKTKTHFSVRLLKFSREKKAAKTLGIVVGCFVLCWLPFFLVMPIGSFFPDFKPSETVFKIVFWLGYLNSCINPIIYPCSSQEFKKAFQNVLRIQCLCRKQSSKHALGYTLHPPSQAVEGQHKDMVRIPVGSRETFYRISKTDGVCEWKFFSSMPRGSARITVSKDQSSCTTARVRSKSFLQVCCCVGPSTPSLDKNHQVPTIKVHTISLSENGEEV
Sequence of 320 GPCRs (Homo sapiens, UniProt Q03431) (Q03431 27-593): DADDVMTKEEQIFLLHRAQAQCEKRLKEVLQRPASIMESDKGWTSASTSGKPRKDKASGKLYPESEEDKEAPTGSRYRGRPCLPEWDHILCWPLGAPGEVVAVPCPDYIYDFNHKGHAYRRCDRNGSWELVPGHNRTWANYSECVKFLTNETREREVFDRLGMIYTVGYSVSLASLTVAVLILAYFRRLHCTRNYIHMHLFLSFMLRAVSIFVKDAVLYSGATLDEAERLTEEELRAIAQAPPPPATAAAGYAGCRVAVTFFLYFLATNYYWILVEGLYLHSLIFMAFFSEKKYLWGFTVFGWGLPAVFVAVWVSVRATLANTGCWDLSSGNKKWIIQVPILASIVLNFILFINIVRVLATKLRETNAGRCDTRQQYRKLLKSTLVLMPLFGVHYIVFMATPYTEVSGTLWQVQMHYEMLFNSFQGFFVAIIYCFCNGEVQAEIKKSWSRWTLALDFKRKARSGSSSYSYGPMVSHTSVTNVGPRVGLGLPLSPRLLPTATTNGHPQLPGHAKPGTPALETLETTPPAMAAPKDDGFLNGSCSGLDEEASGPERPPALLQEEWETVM
Sequence of 320 GPCRs (Homo sapiens, UniProt P13945) (P13945 whole entry): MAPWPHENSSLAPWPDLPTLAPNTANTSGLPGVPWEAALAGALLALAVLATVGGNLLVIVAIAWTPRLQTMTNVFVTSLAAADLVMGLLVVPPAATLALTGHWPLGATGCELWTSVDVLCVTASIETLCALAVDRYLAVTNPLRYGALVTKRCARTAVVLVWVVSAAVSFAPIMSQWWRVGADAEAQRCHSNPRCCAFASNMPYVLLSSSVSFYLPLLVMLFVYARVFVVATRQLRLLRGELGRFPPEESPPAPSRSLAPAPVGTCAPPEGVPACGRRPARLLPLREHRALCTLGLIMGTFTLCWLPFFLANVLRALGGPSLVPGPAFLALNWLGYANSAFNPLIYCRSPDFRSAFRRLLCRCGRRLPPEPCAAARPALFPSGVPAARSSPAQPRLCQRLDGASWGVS
Sequence of 320 GPCRs (Homo sapiens, UniProt Q8TDV0) (Q8TDV0 whole entry): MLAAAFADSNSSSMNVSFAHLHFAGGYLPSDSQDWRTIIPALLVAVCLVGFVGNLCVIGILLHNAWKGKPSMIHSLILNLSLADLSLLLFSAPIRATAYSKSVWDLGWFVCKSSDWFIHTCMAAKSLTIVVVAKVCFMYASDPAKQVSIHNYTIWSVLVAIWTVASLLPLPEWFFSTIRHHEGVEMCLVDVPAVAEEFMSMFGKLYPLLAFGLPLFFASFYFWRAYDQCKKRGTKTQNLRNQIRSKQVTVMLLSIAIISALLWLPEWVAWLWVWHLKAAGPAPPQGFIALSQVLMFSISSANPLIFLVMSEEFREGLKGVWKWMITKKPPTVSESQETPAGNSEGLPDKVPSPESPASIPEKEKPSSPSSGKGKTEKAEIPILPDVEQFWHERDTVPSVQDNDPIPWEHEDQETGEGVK
Sequence of 320 GPCRs (Homo sapiens, UniProt Q8TDV5) (Q8TDV5 whole entry): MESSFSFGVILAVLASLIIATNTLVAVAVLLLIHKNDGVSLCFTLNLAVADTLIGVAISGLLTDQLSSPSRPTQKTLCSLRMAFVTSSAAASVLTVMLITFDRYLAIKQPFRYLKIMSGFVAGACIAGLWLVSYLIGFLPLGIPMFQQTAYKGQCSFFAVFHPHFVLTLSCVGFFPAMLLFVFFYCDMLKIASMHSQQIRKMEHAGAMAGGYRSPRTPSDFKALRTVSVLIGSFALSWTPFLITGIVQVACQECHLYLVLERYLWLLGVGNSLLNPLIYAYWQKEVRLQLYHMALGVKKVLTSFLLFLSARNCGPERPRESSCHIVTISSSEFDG
Sequence of 320 GPCRs (Homo sapiens, UniProt Q14439) (Q14439 whole entry): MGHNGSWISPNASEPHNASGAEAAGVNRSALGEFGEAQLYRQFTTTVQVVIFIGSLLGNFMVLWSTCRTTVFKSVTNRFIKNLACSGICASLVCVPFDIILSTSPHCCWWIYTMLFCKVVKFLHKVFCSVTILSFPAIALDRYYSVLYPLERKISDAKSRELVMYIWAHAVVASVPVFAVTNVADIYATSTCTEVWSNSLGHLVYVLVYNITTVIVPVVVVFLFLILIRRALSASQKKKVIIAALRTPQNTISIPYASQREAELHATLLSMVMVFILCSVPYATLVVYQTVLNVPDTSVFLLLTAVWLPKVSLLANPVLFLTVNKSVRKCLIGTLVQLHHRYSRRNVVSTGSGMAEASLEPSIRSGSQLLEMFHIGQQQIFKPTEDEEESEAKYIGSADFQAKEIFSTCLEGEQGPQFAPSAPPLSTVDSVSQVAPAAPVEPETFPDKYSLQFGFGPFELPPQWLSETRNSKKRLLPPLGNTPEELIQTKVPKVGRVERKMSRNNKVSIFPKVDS

SMILES: O=C(O)C1CCC2(CC1)CC(Nc1ncnc3[nH]c4c(F)cccc4c13)C2 (centres unmarked) [Compound 74, OC(=O)C1CCC2(CC(C2)NC=3N=CN=C4NC=5C(F)=CC=CC5C34)CC1]
- RLU (Fold over Basal) (320 GPCRs [1]): 1.1 Fold over Basal and 1.2 Fold over Basal and 1 Fold over Basal and 0.6 Fold over Basal
- RLU (Fold over Basal) (320 GPCRs [2]): 1.7 Fold over Basal and 1.8 Fold over Basal and 1.4 Fold over Basal
- RLU (Fold over Basal) (320 GPCRs [3]): 0.4 Fold over Basal and 0.7 Fold over Basal and 0.8 Fold over Basal
- RLU (Fold over Basal) (320 GPCRs [4]): 1.6 Fold over Basal and 1.2 Fold over Basal and 0.8 Fold over Basal and 1.5 Fold over Basal
- RLU (Fold over Basal) (320 GPCRs [5]): 0.9 Fold over Basal and 1.2 Fold over Basal and 1.4 Fold over Basal and 1.1 Fold over Basal
- RLU (Fold over Basal) (320 GPCRs [6]): 0.8 Fold over Basal and 0.7 Fold over Basal and 0.9 Fold over Basal and 0.6 Fold over Basal
- RLU (Fold over Basal) (320 GPCRs [7]): 0.8 Fold over Basal and 1.3 Fold over Basal and 1 Fold over Basal
- RLU (Fold over Basal) (320 GPCRs [8]): 1 Fold over Basal and 0.9 Fold over Basal
- RLU (Fold over Basal) (320 GPCRs [9]): 0.5 Fold over Basal and 0.6 Fold over Basal and 0.8 Fold over Basal
- RLU (Fold over Basal) (320 GPCRs [10]): 4 Fold over Basal and 2 Fold over Basal and 3.4 Fold over Basal and 3.2 Fold over Basal
- RLU (Fold over Basal) (320 GPCRs [11]): 1 Fold over Basal and 0.8 Fold over Basal and 1.1 Fold over Basal
- agonist activity in GPCR panel (320 GPCRs [12]): no agonist activity
- RLU (Fold over Basal) (320 GPCRs [13]): 1.4 Fold over Basal and 1.2 Fold over Basal and 1.1 Fold over Basal and 1.3 Fold over Basal
- RLU (Fold over Basal) (320 GPCRs [14]): 1 Fold over Basal and 1.6 Fold over Basal and 1.5 Fold over Basal
- RLU (Fold over Basal) (320 GPCRs [15]): 0.6 Fold over Basal and 1 Fold over Basal
- RLU (Fold over Basal) (320 GPCRs [16]): 1.2 Fold over Basal and 1.1 Fold over Basal and 1.4 Fold over Basal
- RLU (Fold over Basal) (320 GPCRs [17]): 0.9 Fold over Basal and 0.8 Fold over Basal and 1.1 Fold over Basal
- RLU (Fold over Basal) (320 GPCRs [18]): 1.6 Fold over Basal and 1.9 Fold over Basal and 1.1 Fold over Basal and 1.2 Fold over Basal
- RLU (Fold over Basal) (320 GPCRs [19]): 1 Fold over Basal and 0.6 Fold over Basal
- RLU (Fold over Basal) (320 GPCRs [20]): 0.5 Fold over Basal and 0.7 Fold over Basal
- RLU (Fold over Basal) (320 GPCRs [21]): 0.7 Fold over Basal and 1.1 Fold over Basal
- RLU (Fold over Basal) (320 GPCRs [22]): 0.8 Fold over Basal and 1.3 Fold over Basal and 0.9 Fold over Basal and 0.7 Fold over Basal
- remaining binding at 10 µM [23, 24]: 0%
- Signal (qPCR) ([23]; TYK2, [Compound] 0.0001 nM): 4e-6 and 3.91e-6
- Signal (qPCR) ([23]; TYK2, [Compound] 0.01 nM): 3.79e-6 and 3.64e-6
- Signal (qPCR) ([23]; TYK2, [Compound] 0.169 nM): 3.6e-6 and 3.79e-6
- Signal (qPCR) ([23]; TYK2, [Compound] 0.508 nM): 4.38e-6 and 4.26e-6
- Signal (qPCR) ([23]; TYK2, [Compound] 1.52 nM): 4.63e-6 and 4.29e-6
- Signal (qPCR) ([23]; TYK2, [Compound] 13.7 nM): 3.86e-6 and 3.5e-6
- Signal (qPCR) ([23]; TYK2, [Compound] 41.2 nM): 4.1e-6 and 3.94e-6
- Signal (qPCR) ([23]; TYK2, [Compound] 123 nM): 2.97e-6 and 3.29e-6
- Signal (qPCR) ([23]; TYK2, [Compound] 370 nM): 2.73e-6 and 2.71e-6
- Signal (qPCR) ([23]; TYK2, [Compound] 3330 nM): 6.46e-7 and 5.93e-7
- Signal (qPCR) ([23]; TYK2, [Compound] 10000 nM): 1.74e-7 and 2.08e-7
- remaining activity at 10 µM (CSF1R): 69%
- remaining activity at 10 µM (BMPR2; [24]): 0%
- Kd (BMPR2; BMPR2, dose-response): 30 nM
- Signal (qPCR) (BMPR2; compound 1e-5 nM): 3.65e-5 and 5.32e-5
- Signal (qPCR) (BMPR2; compound 0.0001 nM): 5.46e-5 and 5.63e-5
- Signal (qPCR) (BMPR2; compound 0.001 nM): 6.07e-5 and 6.11e-5
- Signal (qPCR) (BMPR2; compound 0.169 nM): 4.64e-5 and 4.8e-5
- Signal (qPCR) (BMPR2; compound 0.508 nM): 4.94e-5 and 5.14e-5
- Signal (qPCR) (BMPR2; compound 1.52 nM): 5.5e-5 and 5.39e-5
- Signal (qPCR) (BMPR2; compound 4.57 nM): 5.07e-5 and 5.31e-5
- Signal (qPCR) (BMPR2; compound 13.7 nM): 3.76e-5 and 3.48e-5
- Signal (qPCR) (BMPR2; compound 41.2 nM): 2.19e-5 and 2.2e-5
- Signal (qPCR) (BMPR2; compound 123 nM): 7.98e-6 and 7.65e-6
- Signal (qPCR) (BMPR2; compound 370 nM): 1.69e-6 and 1.57e-6
- Signal (qPCR) (BMPR2; compound 3330 nM): 4.07e-8 and 4.89e-8
- Signal (qPCR) (BMPR2; compound 10000 nM): 1.28e-8 and 1.26e-8

SMILES: O=C([O-])C1CCC2(CC1)CC(Nc1ncnc3[nH]c4c(F)cccc4c13)C2.[Na+] (centres unmarked) [Compound 77, [Na+].[O-]C(=O)C1CCC2(CC(C2)NC=3N=CN=C4NC=5C(F)=CC=CC5C34)CC1]
- Rotarod latency to fall (mice; 30 mg/kg IP, 1 h after injection, cutoff 300 s, individual animals): 300 s and 281 s and 295 s and 269 s
- motor impairment in the rotarod test (mice; mouse, in vivo): did not induce motor impairment
- Uninjured mice, individual animal values (Supplementary Figure 10A) (mice; uninjured mice, IP 30 mg/kg, single animals, 30 mg/kg): 116 and 71.5 and 93.5 and 86.1 and 110.4
